Test results as given in US20240366581A1 (Hoffmann-La Roche Inc., priority 2022, published 2024).
Structures can show the parent of a compound that is named as a salt.

Tests used:
Assay type in all cases: biochemical
SIK3 = SIK3 (Homo sapiens (Human), UniProt Q9Y2K2); assay: SIK3 enzymatic activity assay, RapidFire mass spectrometry (CHK-peptide phosphorylation); settings: 1.5 nM SIK3, CHK-peptide, ATP, 30 min pre-incubation, 45 min reaction, RapidFire MS; read-out: SIK3 RF IC50
Method: (§1) In the presence of SIK2 (resp. SIK1 or SIK3) and ATP the CHK-peptide ([…] with C-terminal arginine amide modification) were phosphorylated at one of the four feasible serine's. Only one phosphorylation is observed under the assay conditions. 60 nl of each compound dilution series (12 point; dilution factor 3, generally 30 μM to 170 pM) in DMSO were transferred by acoustic dispensing to the assay plate and 30 min pre-incubated (ambient temperature) after the addition of 5 μl SIK1 (5 nM) resp. 5 μl SIK2 (0.5 nM) or 7 μl SIK3 (1.5 nM) in assay-buffer (12.5 mM HEPES (pH 7.0), 10 mM magnesium acetate, 0.005% BSA). 10 μM CHK-peptide solution and 5 μl 100 μM ATP for SIK1 & SIK2 resp. 3 μl for SIK3 in assay-buffer were added and incubated ambient for 45 min. 40 μl 0.125% formic acid in water were added to quench the reaction. RapidFire (RF) Mass Spectrometry was utilized for data generation as described below. The multiple charged species (3-5 charges) for the phosphorylated and non-phosphorylated form measured by MRM (Multiple Reaction Monitoring; API5000 or 6500+) or EIC (Extracted Ion Current; QToF) were summed up and the ratio calculated (sum phosphorylated species/sum all species) for data evaluation. Normalization was performed by Genedata software based on the non-inhibition control DMSO and the commercially available SIK inhibitor @ 1 μM YKL-05-099 (CAS number 1936529-65-5). The results of the assay are expressed in half-maximal inhibitory concentrations (IC50s) and are summarized below in Table 1.
(§2) Samples were aspirated by vacuum for max. 600 ms and loaded to C4-cartridge (Agilent; #G9203A) for 3000 ms@1.5 ml/min with 0.1% formic acid in water. Afterwards samples were transferred to the API5000 (API6500+) or QToF mass spectrometer for 4000 ms@1.25 ml/min with 90% acetonitrile; 10% water; 0.007% TFA; 0.093 formic acid. The cartridge was reconditioned for additional 500 ms with 0.1% formic acid in water
(§3) All MS analyses using the following MS-setup in MRM mode: Electrospray positive; Ion Spray Voltage: 4000V; Temperature: 550° C.; Collision Gas: 5; Curtain Gas: 15; Gas1: 40; Gas 2: 42; EP: 10
(§4) All MS analyses using the following MS-setup in Mode MS: Dual AJS Electrospray positive; VCap: 3000V; Drying & Sheath gas: 340° C.@81/min; Nebulizer: 60 psig; Nozzle Voltage: 2000V; Fragmentor: 130V; Skimmer: 35V; Oct1 RF Vpp: 700V; Ref masses on@5spectra/s

SIK1 = SIK1 (Homo sapiens (Human), UniProt P57059); assay: SIK1 enzymatic activity assay, RapidFire mass spectrometry (CHK-peptide phosphorylation); settings: 5 nM SIK1, CHK-peptide, ATP, 30 min pre-incubation, 45 min reaction, RapidFire MS; read-out: SIK1 RF IC50
Sequence of SIK1 (P57059 whole entry): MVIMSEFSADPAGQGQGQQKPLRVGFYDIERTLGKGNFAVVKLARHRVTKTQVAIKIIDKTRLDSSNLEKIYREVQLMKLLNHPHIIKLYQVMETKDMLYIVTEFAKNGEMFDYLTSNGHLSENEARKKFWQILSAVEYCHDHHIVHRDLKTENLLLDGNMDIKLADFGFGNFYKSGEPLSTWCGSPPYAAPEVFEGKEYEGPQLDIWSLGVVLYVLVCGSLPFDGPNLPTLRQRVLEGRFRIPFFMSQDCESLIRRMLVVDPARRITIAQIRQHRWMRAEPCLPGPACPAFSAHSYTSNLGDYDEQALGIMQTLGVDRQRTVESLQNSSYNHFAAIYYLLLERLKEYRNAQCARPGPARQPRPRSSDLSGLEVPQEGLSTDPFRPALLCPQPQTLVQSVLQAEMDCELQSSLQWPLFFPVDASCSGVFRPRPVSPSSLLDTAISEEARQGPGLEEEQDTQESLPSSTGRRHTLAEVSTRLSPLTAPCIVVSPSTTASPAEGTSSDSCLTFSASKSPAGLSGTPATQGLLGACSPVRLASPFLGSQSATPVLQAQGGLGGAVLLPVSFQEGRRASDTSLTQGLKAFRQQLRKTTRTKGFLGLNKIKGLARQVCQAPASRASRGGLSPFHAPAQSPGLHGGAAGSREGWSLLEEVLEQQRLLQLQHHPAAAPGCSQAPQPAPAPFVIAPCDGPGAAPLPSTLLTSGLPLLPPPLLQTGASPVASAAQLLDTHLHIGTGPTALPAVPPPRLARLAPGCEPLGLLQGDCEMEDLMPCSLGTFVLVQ
Method: as §1, §2, §3, §4

SIK2 = SIK2 (Homo sapiens (Human), UniProt Q9H0K1); assay: SIK2 enzymatic activity assay, RapidFire mass spectrometry (CHK-peptide phosphorylation); settings: 0.5 nM SIK2, CHK-peptide, ATP, 30 min pre-incubation, 45 min reaction, RapidFire MS; read-out: SIK2 RF IC50
Sequence of SIK2 (Q9H0K1 whole entry): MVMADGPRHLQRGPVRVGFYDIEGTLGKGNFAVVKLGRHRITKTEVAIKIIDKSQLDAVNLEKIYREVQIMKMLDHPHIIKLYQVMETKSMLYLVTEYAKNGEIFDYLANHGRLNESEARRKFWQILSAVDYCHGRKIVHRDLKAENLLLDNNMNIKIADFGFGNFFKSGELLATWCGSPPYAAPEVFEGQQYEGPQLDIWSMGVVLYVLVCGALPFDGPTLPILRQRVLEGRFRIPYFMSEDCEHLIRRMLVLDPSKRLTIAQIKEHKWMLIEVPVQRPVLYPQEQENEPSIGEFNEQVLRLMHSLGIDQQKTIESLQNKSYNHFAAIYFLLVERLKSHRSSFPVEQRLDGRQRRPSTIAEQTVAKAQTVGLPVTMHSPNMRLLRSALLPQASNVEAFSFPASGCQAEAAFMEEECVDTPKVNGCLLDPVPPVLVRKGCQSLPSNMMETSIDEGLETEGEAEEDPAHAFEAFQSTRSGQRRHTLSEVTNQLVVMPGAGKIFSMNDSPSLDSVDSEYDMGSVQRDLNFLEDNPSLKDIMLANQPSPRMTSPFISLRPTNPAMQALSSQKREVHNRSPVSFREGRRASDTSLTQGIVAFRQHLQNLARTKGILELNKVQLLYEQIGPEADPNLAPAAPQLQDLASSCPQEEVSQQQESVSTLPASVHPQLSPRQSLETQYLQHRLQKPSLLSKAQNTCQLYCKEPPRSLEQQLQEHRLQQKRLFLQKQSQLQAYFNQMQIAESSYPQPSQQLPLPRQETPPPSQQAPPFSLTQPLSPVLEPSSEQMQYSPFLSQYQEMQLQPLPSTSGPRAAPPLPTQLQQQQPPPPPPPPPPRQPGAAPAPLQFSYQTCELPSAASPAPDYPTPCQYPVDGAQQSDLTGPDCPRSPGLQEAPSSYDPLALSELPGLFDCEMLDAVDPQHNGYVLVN
Method: as §1, §2, §3, §4

Sequence of SIK3 (Q9Y2K2 whole entry): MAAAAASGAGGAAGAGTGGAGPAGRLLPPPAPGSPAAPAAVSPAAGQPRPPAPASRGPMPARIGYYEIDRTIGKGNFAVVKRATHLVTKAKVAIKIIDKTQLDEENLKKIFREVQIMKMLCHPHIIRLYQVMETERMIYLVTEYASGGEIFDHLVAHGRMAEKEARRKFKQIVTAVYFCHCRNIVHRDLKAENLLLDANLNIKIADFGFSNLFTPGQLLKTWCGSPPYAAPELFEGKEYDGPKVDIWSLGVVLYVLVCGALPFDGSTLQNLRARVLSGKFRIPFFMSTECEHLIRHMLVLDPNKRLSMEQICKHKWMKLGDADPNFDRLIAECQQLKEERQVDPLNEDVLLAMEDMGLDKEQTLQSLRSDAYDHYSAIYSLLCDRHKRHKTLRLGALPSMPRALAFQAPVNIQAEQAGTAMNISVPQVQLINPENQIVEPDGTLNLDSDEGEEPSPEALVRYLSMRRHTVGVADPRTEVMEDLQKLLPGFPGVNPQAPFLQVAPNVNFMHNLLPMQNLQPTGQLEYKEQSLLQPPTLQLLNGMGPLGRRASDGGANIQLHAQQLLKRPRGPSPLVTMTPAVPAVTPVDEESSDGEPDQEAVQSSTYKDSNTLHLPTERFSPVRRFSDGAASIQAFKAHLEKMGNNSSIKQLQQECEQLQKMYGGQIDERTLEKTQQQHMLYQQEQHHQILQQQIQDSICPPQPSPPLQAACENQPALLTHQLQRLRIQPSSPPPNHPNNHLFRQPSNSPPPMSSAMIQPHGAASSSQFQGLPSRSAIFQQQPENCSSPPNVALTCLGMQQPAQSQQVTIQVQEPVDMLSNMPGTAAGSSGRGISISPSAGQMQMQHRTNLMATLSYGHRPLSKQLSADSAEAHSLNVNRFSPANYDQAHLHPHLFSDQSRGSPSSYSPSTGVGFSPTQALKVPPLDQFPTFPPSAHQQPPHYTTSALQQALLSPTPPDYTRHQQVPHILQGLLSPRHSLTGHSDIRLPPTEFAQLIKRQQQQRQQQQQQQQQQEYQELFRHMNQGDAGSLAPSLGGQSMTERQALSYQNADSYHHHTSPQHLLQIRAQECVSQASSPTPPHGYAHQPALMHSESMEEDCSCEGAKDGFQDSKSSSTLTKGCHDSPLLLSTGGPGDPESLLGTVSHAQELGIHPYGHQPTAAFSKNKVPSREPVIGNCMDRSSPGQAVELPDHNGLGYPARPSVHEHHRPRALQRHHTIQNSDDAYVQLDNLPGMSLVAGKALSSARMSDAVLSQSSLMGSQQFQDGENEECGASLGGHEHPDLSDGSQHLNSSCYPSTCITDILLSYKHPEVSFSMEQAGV

| SMILES | IC50 (SIK3) [nM] | IC50 (SIK1) [nM] | IC50 (SIK2) [nM] |
| --- | --- | --- | --- |
| COc1cc2ncn(-c3ccc(C(N)=O)c(Oc4ccccc4Cl)n3)c2cc1OC [Example 1, 2-(2-chlorophenoxy)-6-(5,6-dimethoxybenzimidazol-1-yl)pyridine-3-carboxamide] | 57.2 | 15.1 | 14.2 |
| COc1cc2ncn(-c3ccc(C(N)=O)c(Nc4ccccc4)n3)c2cc1OC [Example 2, 6-(5,6-Dimethoxy-benzoimidazol-1-yl)-2-phenylamino-nicotinamide] | 97.2 | 14 | 3.8 |
| COc1cc2ncn(-c3ccc(C(N)=O)c(NCc4ccccc4)n3)c2cc1OC [Example 3, 2-(benzylamino)-6-(5,6-dimethoxybenzimidazol-1-yl)pyridine-3-carboxamide] | 156 | 15.5 | 7.8 |
| COc1cc2ncn(-c3ccc(C(N)=O)c(NC(CCN)c4ccsc4)n3)c2cc1OC (stereo not shown) [Example 4, 2-[[3-amino-1-(3-thienyl)propyl]amino]-6-(5,6-dimethoxybenzimidazol-1-yl)pyridine-3-carboxamide hydrochloride] | 114 | 3.4 | 3.3 |
| COc1cc2ncn(-c3ccc(C(N)=O)c(NC(CCN)c4ccccc4)n3)c2cc1OC (stereo not shown) [Example 5, 2-[(3-amino-1-phenyl-propyl)amino]-6-(5,6-dimethoxybenzimidazol-1-yl)pyridine-3-carboxamide hydrochloride] | 331 | 7.4 | 9.5 |
| COc1cc2ncn(-c3ccc(C(N)=O)c(NCCc4ccccc4)n3)c2cc1OC [Example 6, 6-(5,6-dimethoxybenzimidazol-1-yl)-2-(2-phenylethylamino)pyridine-3-carboxamide] | 39.9 | 2.8 | 2.5 |
| COc1cc2ncn(-c3ccc(C(N)=O)c(NCc4cccs4)n3)c2cc1OC [Example 7, 6-(5,6-dimethoxybenzimidazol-1-yl)-2-(2-thienylmethylamino)pyridine-3-carboxamide] | 188 | 29.7 | 18.2 |
| COc1cc2ncn(-c3ccc(C(N)=O)c(NCc4ccc(Cl)cc4)n3)c2cc1OC [Example 8, 2-[(4-chlorophenyl)methylamino]-6-(5,6-dimethoxybenzimidazol-1-yl)pyridine-3-carboxamide] | 260 | 27.4 | 16.2 |
| COc1cc2ncn(-c3ccc(C(N)=O)c(NCCc4cccc(Cl)c4)n3)c2cc1OC [Example 9, 2-[2-(3-chlorophenyl)ethylamino]-6-(5,6-dimethoxybenzimidazol-1-yl)pyridine-3-carboxamide] | 146 | 6.2 | 6.5 |
| COc1cc2ncn(-c3ccc(C(N)=O)c(NC(CN)c4cccc(Cl)c4)n3)c2cc1OC (stereo not shown) [Example 10, 2-[[2-amino-1-(3-chlorophenyl)ethyl]amino]-6-(5,6-dimethoxybenzimidazol-1-yl)pyridine-3-carboxamide hydrochloride] | 44.9 | 1.7 | 1.2 |
| COc1cc2ncn(-c3ccc(C(N)=O)c(NC(CCN)c4cccc(Cl)c4)n3)c2cc1OC (stereo not shown) [Example 11, 2-[[3-amino-1-(3-chlorophenyl)propyl]amino]-6-(5,6-dimethoxybenzimidazol-1-yl)pyridine-3-carboxamide hydrochloride] | 206 | 6.3 | 15.8 |
| COc1cc2ncn(-c3ccc(C(N)=O)c(NC(CN)c4ccsc4)n3)c2cc1OC (stereo not shown) [Example 12, 2-[[2-amino-1-(3-thienyl)ethyl]amino]-6-(5,6-dimethoxybenzimidazol-1-yl)pyridine-3-carboxamide hydrochloride] | 69.2 | 1.7 | 2.2 |
| COC(=O)c1ccc(-n2cnc3cc(OC)c(OC)cc32)nc1-c1cccc(Cl)c1 [Example 13, Methyl 2-(3-chlorophenyl)-6-(5,6-dimethoxy-1H-benzo[d]imidazol-1-yl)nicotinate] | > 30000 | 22500 | 995 |
| COC(=O)c1ccc(-n2cnc3cc(OC)c(OC)cc32)nc1N1CCCCC1=O [Example 14, Methyl 6-(5,6-dimethoxy-1H-benzo[d]imidazol-1-yl)-2-(2-oxopiperidin-1-yl)nicotinate] | 18000 | 7480 | 5150 |
| COC(=O)c1ccc(-n2cnc3cc(OC)c(OC)cc32)nc1N1CCCC1=O [Example 15, Methyl 6-(5,6-dimethoxy-1H-benzo[d]imidazol-1-yl)-2-(2-oxopyrrolidin-1-yl)nicotinate] | 4000 | 1570 | 828 |
| COc1cc2ncn(-c3ccc(C(=O)O)c(N4CCCCC4)n3)c2cc1OC [Example 16, 6-(5,6-Dimethoxy-1H-benzo[d]imidazol-1-yl)-2-(piperidin-1-yl)nicotinic acid] | 1670 | 260 | 241 |
| CCNC(=O)c1ccc(-n2cnc3cc(OC)c(OC)cc32)nc1-c1cccc(C#N)c1 [Example 17, 2-(3-cyanophenyl)-6-(5,6-dimethoxybenzimidazol-1-yl)-N-ethyl-pyridine-3-carboxamide] | 21600 | 14900 | 5070 |
| CNC(=O)c1ccc(-n2cnc3cc(OC)c(OC)cc32)nc1-c1cccc(C#N)c1 [Example 18, 2-(3-Cyanophenyl)-6-(5,6-dimethoxybenzimidazol-1-yl)-N-methyl-pyridine-3-carboxamide; Formic Acid] | 13500 | 9470 | 5770 |
| COc1cc2ncn(-c3ccc(C(=O)NC4CC4)c(-c4cccc(C#N)c4)n3)c2cc1OC [Example 19, 2-(3-Cyanophenyl)-N-cyclopropyl-6-(5,6-dimethoxybenzimidazol-1-yl)pyridine-3-carboxamide] | > 10000 | 1770 | 5740 |
| COc1cc2ncn(-c3ccc(C(=O)NCC(F)(F)F)c(-c4cccc(C#N)c4)n3)c2cc1OC [Example 20, 2-(3-Cyanophenyl)-6-(5,6-dimethoxybenzimidazol-1-yl)-N-(2,2,2-trifluoroethyl)pyridine-3-carboxamide] | > 30000 | 12100 | 6240 |
| COc1cc2ncn(-c3ccc(C(N)=O)c(-c4cccc(C#N)c4)n3)c2cc1OC [Example 21, 2-(3-Cyanophenyl)-6-(5,6-dimethoxybenzimidazol-1-yl)pyridine-3-carboxamide] | 3500 | 659 | 878 |
| Cc1cc(C#N)nn1-c1nc(-n2cnc3cc(OCCN4CCOCC4)ccc32)ccc1C(N)=O [Example 22, 2-(3-Cyano-5-methyl-pyrazol-1-yl)-6-[5-(2-morpholinoethoxy)benzimidazol-1-yl]pyridine-3-carboxamide] | 12200 | 19800 | 7410 |
| Cc1ccc(Nc2ccc3c(c2)ncn3-c2ccc(C(N)=O)c(OC(C)C(F)F)n2)nn1 (stereo not shown) [Example 23, 2-(2,2-Difluoro-1-methyl-ethoxy)-6-[5-[(6-methylpyridazin-3-yl)amino]benzimidazol-1-yl]pyridine-3-carboxamide] | 4.9 | 361 | 15.2 |
| Cc1ccc(Nc2ccc3ncn(-c4ccc(C(N)=O)c(OC(C)C(F)F)n4)c3c2)nn1 (stereo not shown) [Example 24] | 95.7 | 605 | 206 |
| COc1cc(-n2cnc3cc(Nc4ccc(C)nn4)ccc32)nc(OC)c1C(C)=O [Example 29, 1-[2,4-dimethoxy-6-[5-[(6-methylpyridazin-3-yl)amino]benzimidazol-1-yl]-3-pyridyl]ethanone] | – | 1460 | 86.7 |
| CC(=O)c1ccc(-n2cnc3cc4c(cc32)NCC4)nc1-n1nc(C#N)cc1C [Example 30, 1-[3-acetyl-6-(6,7-dihydro-5H-pyrrolo[3,2-f]benzimidazol-3-yl)-2-pyridyl]-5-methyl-pyrazole-3-carbonitrile] | – | 547 | 816 |
